Experimental data reported in patent US7238679B2, “Heterocycles and uses thereof” (Ariad Pharmaceuticals, Inc., priority 2002, dated 2007).

Legend:
MDA-468 tumor cell line = experiment: Conventional cell-based assay against the MDA-468 tumor cell line
Text: Cell-based methods for measuring antiproliferative activity are well known and can be used for comparative characterization of compounds of this invention. In general, cell proliferation and cell viability assays are designed to provide a detectable signal when cells are metabolically active. Compounds may be tested for antiproliferative activity by measuring any observed decrease in metabolic activity of the cells after exposure of the cells to compound. Commonly used methods include, for example, measurement of membrane integrity (as a measure of cell viability)(e.g. using trypan blue exclusion) or measurement of DNA synthesis (e.g. by measuring incorporation of BrdU or 3H-thymidine).
Some methods for assaying cell proliferation use a reagent that is converted into a detectable compound during cell proliferation. Particularly preferred compounds are tetrazolium salts and include without limitation MTT (3-(4, 5-dimethylthiazol-2-yl)-2,5-diphenyltetrazolium bromide; Sigma-Aldrich, St. Louis, Mo.), MTS (3-(4,5-dimethylthiazol-2-yl)-5-(3-carboxymethoxyphenyl)-2-(4-sulfophenyl)-2H-tetrazolium), XTT (2,3-bis(2-Methoxy4-nitro-5-sulfophenyl)-2H-tetrazolium-5-carboxanilide), INT, NBT, and NTV (Bernas et al. Biochim Biophys Acta 1451(1):73–81, 1999). Preferred assays utilizing tetrazolium salts detect cell proliferation by detecting the product of the enzymatic conversion of the tetrazolium salts into blue formazan derivatives, which are readily detected by spectroscopic methods (Mosman. J. Immunol. Methods. 65:55–63, 1983).
Generally, preferred methods for assaying cell proliferation involve incubating cells in a desired growth medium with and without the compounds to be tested. […] Cells are processed, and the optical density of the cells is determined to measure the amount of formazan derivatives. […]

SMILES	IC50 (MDA-468 tumor cell line)	melting point
COc1cc2ncnc(Nc3ccc(F)c(Cl)c3)c2cc1P(C)(C)=O [Example 3, 4-[(3-Chloro-4-fluorophenyl)amino]-7-methoxy-6-(dimethylphosphinoyl)-quinazoline]	< 50 µM	257 to 259 °C
CCOP(=O)(OCC)c1cc2c(Nc3ccc(F)c(Cl)c3)ncnc2cc1OC [Example 5, 4-[(3-Chloro-4-fluorophenyl)amino]-7-methoxy-6-(diethylphosphonate)-quinazoline]	< 50 µM	215 to 217 °C
CCOP(C)(=O)c1cc2c(Nc3ccc(F)c(Cl)c3)ncnc2cc1OC (stereo not drawn) [Example 7, 4-[(3-Chloro-4-fluorophenyl)amino]-7-methoxy-6-(ethyl-methylphosphinate)-quinazoline]	< 50 µM	199 to 200 °C
